Results on 17 compounds are retold here after patent publication US9062028B2, “Bicyclic nitrogen containing heteroaryl TGR5 receptor modulators” (Bristol-Myers Squibb Company, priority 2011, dated 2015).

Structures can show the parent of a compound that is named as a salt.

In the first experiment the target is T1, recombinant human TGR5 (Homo sapiens, UniProt Q8TDU6).
T1 construct: expressed in transfected cells
T1 sequence (Q8TDU6 1-330): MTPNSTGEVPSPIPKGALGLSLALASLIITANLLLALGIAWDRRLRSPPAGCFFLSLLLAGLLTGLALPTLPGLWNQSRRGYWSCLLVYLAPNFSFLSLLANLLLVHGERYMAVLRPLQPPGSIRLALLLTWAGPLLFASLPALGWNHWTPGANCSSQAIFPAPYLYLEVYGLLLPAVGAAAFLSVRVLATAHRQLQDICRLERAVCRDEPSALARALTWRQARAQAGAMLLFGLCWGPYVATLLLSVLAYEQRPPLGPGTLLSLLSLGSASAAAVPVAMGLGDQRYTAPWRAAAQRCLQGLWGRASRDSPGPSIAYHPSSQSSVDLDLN
The experiment is described as follows: cAMP assay (cAMP accumulation, HTRF) in CHOK1 cells stably expressing TGR5. It counts as cell-based. The following applies: CHOK1 cells stably expressing human TGR5, 30 minutes at RT, 1% DMSO. In a few lines:
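CHOK1 cells stably expressing TGR5 (text also calls it chimeric human/mouse), 0.4-0.5×10^6 cells/mL in PBS with Ca/Mg and 0.1 mM IBMX, compound 30 min at RT, 1% DMSO. cAMP by HTRF 665/620 interpolated to a standard curve; EC50 from 4-parameter fit as half-maximal increase.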
Consider `Cc1c(Cl)cccc1OCCCC(=O)N1C[C@@H]2C[C@@H]2c2c(-c3cnn(Cc4cccc(C(=O)NCCS(=O)(=O)O)c4)c3)cccc21` [Example 138A, 2-(3-((4-((1aR,7bS)-3-(4-(3-Chloro-2-methylphenoxy)butanoyl)-1a,2,3,7b-tetrahydro-1H-cyclopropa[c]quinolin-7-yl)-1H-pyrazol-1-yl)methyl)benzamido) ethanesulfonic acid], for which the EC50 was 24 nM.
With `Cc1cccc(OCCCC(=O)N2CCCc3c(-c4cnn(CC(=O)O)c4)cccc32)c1C` [Example 1, 2-(4-(1-(4-(2,3-Dimethylphenoxy)butanoyl)-1,2,3,4-tetrahydroquinolin-5-yl)-1H-pyrazol-1-yl)acetic acid], the EC50 amounted to 3540 nM.
Same read-out and setting: then `Cc1c(Cl)cccc1OCCCC(=O)N1C[C@@H]2C[C@@H]2c2c(-c3cnn(Cc4cccc(C(=O)O)c4)c3)cccc21` (single isomer, unassigned) [Example 231], with 47 nM.
For `Cc1cccc(OCCCC(=O)N2CCCc3c(-c4cnc(OCC(=O)O)nc4)cccc32)c1C` [Example 124, 2-(5-(1-(4-(2,3-Dimethylphenoxy)butanoyl)-1,2,3,4-tetrahydroquinolin-5-yl)pyrimidin-2-yloxy)acetic acid, TFA salt], the EC50 was 5000 nM.
As for `Cc1c(Cl)cccc1OCCCC(=O)N1CCSc2c(-c3cnn(Cc4c(F)cc(C(=O)NCCS(=O)(=O)O)cc4Cl)c3)cccc21` [Example 574, 2-(3-Chloro-4-((4-(4-(4-(3-chloro-2-methylphenoxy)butanoyl)-3,4-dihydro-2H-benzo[b][1,4]thiazin-8-yl)-1H-pyrazol-1-yl)methyl)-5-fluorobenzamido) ethanesulfonic acid], the EC50 was found to be 23 nM.
For the compound `Cc1cccc(OCCCC(=O)N2CCCc3c(-c4cccc(COC(=O)NCC[C@H](O)C(=O)O)c4)cccc32)c1C` [Example 273, (S)-4-((3-(1-(4-(2,3-Dimethylphenoxy)butanoyl)-1,2,3,4-tetrahydroquinolin-5-yl)benzyloxy)carbonylamino)-2-hydroxybutanoic acid], the EC50 was 646 nM.
As to `Cc1c(Cl)cccc1OCCCC(=O)N1CCCCc2c(-c3cnn(Cc4cccc(C(=O)NCCC(=O)O)c4)c3)cccc21` [Example 730, 3-(3-((4-(1-(4-(3-Chloro-2-methylphenoxy)butanoyl)-2,3,4,5-tetrahydro-1H-benzo[b]azepin-6-yl)-1H-pyrazol-1-yl)methyl)benzamido)propanoic acid], the EC50 amounted to 188 nM.
On to `CCOC(=O)CN(CC(=O)OCC)C(=O)c1cccc(Cn2cc(-c3cccc4c3[C@H]3C[C@H]3CN4C(=O)CCCOc3cccc(Cl)c3C)cn2)c1` [Example 896, Diethyl 2,2′-(3-((4-((1aR,7bS)-3-(4-(3-chloro-2-methylphenoxy)butanoyl)-1a,2,3,7b-tetrahydro-1H-cyclopropa[c]quinolin-7-yl)-1H-pyrazol-1-yl)methyl)benzoylazanediyl)diacetate], for which the EC50 was determined as 198 nM.
As to `Cc1c(Cl)cccc1OCCCC(=O)N1CCSc2c(-c3cnn(Cc4cccc(C(=O)NCC(C)(C)O)c4)c3)cccc21` [Example 593, 3-((4-(4-(4-(3-Chloro-2-methylphenoxy)butanoyl)-3,4-dihydro-2H-benzo[b][1,4]thiazin-8-yl)-1H-pyrazol-1-yl)methyl)-N-(2-hydroxy-2-methylpropyl)benzamide], the EC50 was found to be 42 nM.

In the next experiment the target is T2, recombinant human DGAT1 (Homo sapiens, UniProt O75907).
T2 construct: made in house; host or cells: Sf9 insect cells (baculovirus), membrane preparation
T2 sequence (O75907 1-488): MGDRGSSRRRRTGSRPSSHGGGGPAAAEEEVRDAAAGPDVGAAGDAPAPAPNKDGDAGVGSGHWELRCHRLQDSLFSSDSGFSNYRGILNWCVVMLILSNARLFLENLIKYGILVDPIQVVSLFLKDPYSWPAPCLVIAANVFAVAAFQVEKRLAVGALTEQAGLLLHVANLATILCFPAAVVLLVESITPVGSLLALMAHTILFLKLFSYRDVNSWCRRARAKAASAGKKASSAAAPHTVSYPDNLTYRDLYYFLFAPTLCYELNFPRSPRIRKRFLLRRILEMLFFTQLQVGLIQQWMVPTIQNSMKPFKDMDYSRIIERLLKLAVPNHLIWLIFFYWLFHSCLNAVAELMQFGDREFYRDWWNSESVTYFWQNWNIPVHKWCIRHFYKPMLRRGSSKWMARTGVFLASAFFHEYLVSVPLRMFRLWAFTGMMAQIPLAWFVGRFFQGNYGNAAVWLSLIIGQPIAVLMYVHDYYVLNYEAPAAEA
The experiment is described as follows: Diacylglycerol Acyltransferase (DGAT) Assay. It counts as biochemical. The settings on record: membranes from Sf9 cells expressing recombinant human DGAT1; 2-monooleoylglycerol and [3H]-oleoyl-CoA as substrates; read-out: IC50 against the DGAT1 enzyme. As for the experimental part:
Diacylglycerol Acyltransferase (DGAT) Assay
DGAT1 enzyme was assayed using membranes isolated from Sf9 cells expressing the recombinant human DGAT1 cDNA with 2-monooleoylglycerol and [^3H]-oleoyl-CoA as substrates as described by Seethala et al. (Anal Biochem., 383(2):144-150 (Dec. 15, 2008)). Briefly, the assays were conducted in 384-well plates in a total volume of 30 μl at 25° C. In each assay, 200 ng of recombinant human DGAT1 membrane was incubated with 10 μM of 2-monooleoylglycerol and 15 μM of [^3H]-oleoyl-CoA in 100 mM potassium phosphate (pH 7.4) for 20 min with various concentrations of compounds delivered in DMSO. The assay was terminated by the addition of 20 μl of Stopping Solution (7.5 mg/ml Yittrium Oxide Polylysine beads, 3.3 mg/ml Fraction V BSA and 200 μM Mercuric chloride in 50 mM HEPES, pH 7.4). The signal was measured 1 h after quenching the reaction using LEADSEEKER^SM for 5 minutes. To calculate the degree of inhibition, the zero level of enzyme activity (blank) was defined by the above assay procedure using membrane form Sf9 cell uninfected with baculovirus (Naive) and the 100% level of DGAT1 enzyme activity was defined by human […] DGAT1 assay with the vehicle DMSO. The IC50s of inhibitors were determined by logistic 4 parameter equation in XL-fit.
Regarding `Cc1cccc(OCCCC(=O)N2C[C@@H]3C[C@@H]3c3c(-c4cccc(COC(=O)NCCC(=O)O)c4)cccc32)c1C` (single isomer, unassigned) [Example 237], the IC50 was more than 10 µM.
Take `Cc1cccc(OCCCC(=O)N2CCOc3c(-c4cnn(Cc5c(F)cc(C(=O)NCC[N+](C)(C)C)cc5Cl)c4)cccc32)c1C` [Example 177P, 2-(3-Chloro-4-((4-(4-(4-(2,3-dimethylphenoxy)butanoyl)-3,4-dihydro-2H-benzo[b][1,4]oxazin-8-yl)-1H-pyrazol-1-yl)methyl)-5-fluorobenzamido)-N,N,N-trimethylethanaminium, TFA]: the IC50 is more than 10 µM.
For the compound `Cc1cccc(OCCCC(=O)N2CCCc3c(-c4cnn(Cc5cccc(OCCP(=O)(O)O)c5)c4)cccc32)c1C` [Example 69M, 2-(3-((4-(1-(4-(2,3-Dimethylphenoxy)butanoyl)-1,2,3,4-tetrahydroquinolin-5-yl)-1H-pyrazol-1-yl)methyl)phenoxy)ethylphosphonic acid], the IC50 was more than 10 µM.
Same read-out and setting: for `Cc1c(Cl)cccc1OCCCC(=O)N1C[C@@H]2C[C@@H]2c2c(-c3cnn(Cc4cccc(C(=O)NCCS(=O)(=O)O)c4)c3)cccc21` [Example 138A, 2-(3-((4-((1aR,7bS)-3-(4-(3-Chloro-2-methylphenoxy)butanoyl)-1a,2,3,7b-tetrahydro-1H-cyclopropa[c]quinolin-7-yl)-1H-pyrazol-1-yl)methyl)benzamido) ethanesulfonic acid] the value was more than 10 µM.
As to `Cc1cccc(OCCCC(=O)N2CC3CC3c3c(-c4cnn(Cc5c(F)cc(C(=O)NCCC[C@H](N)C(=O)O)cc5Cl)c4)cccc32)c1C` (stereo partly drawn) [Example 69A, (2S)-2-Amino-5-(3-chloro-4-((4-(3-(4-(2,3-dimethylphenoxy)butanoyl)-1a,2,3,7b-tetrahydro-1H-cyclopropa[c]quinolin-7-yl)-1H-pyrazol-1-yl)methyl)-5-fluorobenzamido)pentanoic acid], the IC50 is more than 10 µM.
As to `Cc1cccc(OCCCC(=O)N2CCCc3c(-c4cnn(CC(=O)O)c4)cccc32)c1C` [Example 1, 2-(4-(1-(4-(2,3-Dimethylphenoxy)butanoyl)-1,2,3,4-tetrahydroquinolin-5-yl)-1H-pyrazol-1-yl)acetic acid], the IC50 was more than 10 µM.
On to `Cc1c(Cl)cccc1OCCCC(=O)N1C[C@@H]2C[C@@H]2c2c(-c3cnn(Cc4cccc(C(=O)O)c4)c3)cccc21` (single isomer, unassigned) [Example 231], for which the IC50 is more than 10 µM.
Still for that read-out and setting: then `Cc1cccc(OCCCC(=O)N2CCCc3c(-c4ccnc(Nc5ccc(C(=O)O)cc5)c4)cccc32)c1C` [Example 168A, 4-(4-(1-(4-(2,3-Dimethylphenoxy)butanoyl)-1,2,3,4-tetrahydroquinolin-5-yl)pyridin-2-ylamino) benzoic acid], with more than 10 µM; and `Cc1cccc(OCCCC(=O)N2CCCc3c(-c4cnn(Cc5cccc(NC(=O)NCS(=O)(=O)O)c5)c4)cccc32)c1C` [Example 86, (3-(3-((4-(1-(4-(2,3-Dimethylphenoxy)butanoyl)-1,2,3,4-tetrahydroquinolin-5-yl)-1H-pyrazol-1-yl)methyl)phenyl)ureido)methanesulfonic acid], with more than 10 µM.
Take `Cc1cccc(OCCCC(=O)N2CCCc3c(-c4cnn(Cc5cccc(OCCS(=O)(=O)O)c5)c4)cccc32)c1C` [Example 215, 2-(3-((4-(1-(4-(2,3-Dimethylphenoxy)butanoyl)-1,2,3,4-tetrahydroquinolin-5-yl)-1H-pyrazol-1-yl)methyl)phenoxy)ethanesulfonic acid]: the IC50 is more than 10 µM.
For `Cc1cccc(OCCCC(=O)N2CCOc3c(-c4cnn(Cc5cccc(NC(=O)NCCS(=O)(=O)O)c5)c4)cccc32)c1C` [Example 177N, 2-(3-(3-((4-(4-(4-(2,3-Dimethylphenoxy)butanoyl)-3,4-dihydro-2H-benzo[b][1,4]oxazin-8-yl)-1H-pyrazol-1-yl)methyl)phenyl)ureido) ethanesulfonic acid], the IC50 is more than 10 µM.
